pIC50: −log10 of the molar value.
What was measured:
Assay in all cases: cells
Format in all cases: functional, cell-based
Conditions in all cases: Homo sapiens
[1] = system: K562
Description: SANGER: Inhibition of human K-562 cell growth in a cell viability assay.

[2] = system: SK-UT-1;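 also: growth inhibition of SK-UT-1 cells, measured by a cell viability assay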
Description: SANGER: Inhibition of human SK-UT-1 cell growth in a cell viability assay.

[3] = system: NCI-H1092;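 also: cell growth inhibition measured with a cell viability assay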
Description: SANGER: Inhibition of human NCI-H1092 cell growth in a cell viability assay.

[4] = system: A388;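 also: growth inhibition of human A388 cells, read out with a cell viability assay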
Description: SANGER: Inhibition of human A388 cell growth in a cell viability assay.

[5] = system: CCRF-CEM;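 also: inhibition of CCRF-CEM cell growth, measured by a cell viability assay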
Description: SANGER: Inhibition of human CCRF-CEM cell growth in a cell viability assay.

[6] = system: RCC10RGB;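 also: growth inhibition of human RCC10RGB cells, read out by a cell viability assay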
Description: SANGER: Inhibition of human RCC10RGB cell growth in a cell viability assay.

[7] = system: ES4;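 also: growth inhibition of human ES4 cells, read out by a cell viability assay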
Description: SANGER: Inhibition of human ES4 cell growth in a cell viability assay.

[8] = system: NCI-H510A;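 also: growth inhibition of NCI-H510A cells, read out with a cell viability assay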
Description: SANGER: Inhibition of human NCI-H510A cell growth in a cell viability assay.

[9] = system: CGTH-W-1;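 also: growth inhibition of human CGTH-W-1 cells measured by cell viability assay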
Description: SANGER: Inhibition of human CGTH-W-1 cell growth in a cell viability assay.

[10] = system: EW-13;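 also: growth inhibition of EW-13 cells, read out with a cell viability assay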
Description: SANGER: Inhibition of human EW-13 cell growth in a cell viability assay.

[11] = system: SK-N-DZ;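 also: growth inhibition of the cancer cell line, read out through a viability assay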
Description: SANGER: Inhibition of human SK-N-DZ cell growth in a cell viability assay.

[12] = system: NOS-1;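 also: growth inhibition of the human NOS-1 cell line, read out with a cell viability assay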
Description: SANGER: Inhibition of human NOS-1 cell growth in a cell viability assay.

[13] = system: NCI-H1304;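 also: growth inhibition of the cancer cell line, measured in a cell viability assay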
Description: SANGER: Inhibition of human NCI-H1304 cell growth in a cell viability assay.

[14] = system: DMS-114
[15] = system: U-266
Description: SANGER: Inhibition of human U-266 cell growth in a cell viability assay.

[16] = system: TE-6;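 also: growth inhibition of TE-6 cells, read out with a cell viability assay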
Description: SANGER: Inhibition of human TE-6 cell growth in a cell viability assay.

[17] = system: MFM-223
Description: SANGER: Inhibition of human MFM-223 cell growth in a cell viability assay.

[18] = system: HH
Description: SANGER: Inhibition of human HH cell growth in a cell viability assay.

[19] = system: HAL-01;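 also: growth inhibition of human HAL-01 cells, read out with a cell viability assay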
Description: SANGER: Inhibition of human HAL-01 cell growth in a cell viability assay.

[20] = system: OCI-AML2;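 also: growth inhibition of OCI-AML2 cells, read out with a cell viability assay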
Description: SANGER: Inhibition of human OCI-AML2 cell growth in a cell viability assay.

[21] = system: EKVX;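 also: growth inhibition of human EKVX cells, read out with a cell viability assay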
Description: SANGER: Inhibition of human EKVX cell growth in a cell viability assay.

[22] = system: SW982;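 also: growth inhibition of SW982 cells, read out with a cell viability assay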
Description: SANGER: Inhibition of human SW982 cell growth in a cell viability assay.

[23] = system: TE-5;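 also: inhibition of cell growth, read out by a cell viability assay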
Description: SANGER: Inhibition of human TE-5 cell growth in a cell viability assay.

[24] = system: ES3;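 also: growth inhibition of ES3 cells, read out with a cell viability assay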
Description: SANGER: Inhibition of human ES3 cell growth in a cell viability assay.

[25] = system: L-428
Description: SANGER: Inhibition of human L-428 cell growth in a cell viability assay.

[26] = system: DSH1;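 also: growth inhibition of human DSH1 cells, measured with a cell viability readout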
Description: SANGER: Inhibition of human DSH1 cell growth in a cell viability assay.

[27] = system: COLO-320-HSR;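 also: growth inhibition of COLO-320-HSR cells, determined with a cell viability assay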
Description: SANGER: Inhibition of human COLO-320-HSR cell growth in a cell viability assay.

[28] = system: A101D;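 also: growth inhibition of the cell line, measured with a viability assay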
Description: SANGER: Inhibition of human A101D cell growth in a cell viability assay.

[29] = system: HCC1187;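 also: growth inhibition of HCC1187 cells, read out with a cell viability assay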
Description: SANGER: Inhibition of human HCC1187 cell growth in a cell viability assay.

[30] = system: DEL;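 also: growth inhibition of the human DEL cell line, read out with a cell viability assay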
Description: SANGER: Inhibition of human DEL cell growth in a cell viability assay.

[31] = system: NCI-H446;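 also: growth inhibition of NCI-H446 cells determined by a cell viability assay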
Description: SANGER: Inhibition of human NCI-H446 cell growth in a cell viability assay.

[32] = system: HEL;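 also: growth inhibition of HEL cells, read out with a cell viability assay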
Description: SANGER: Inhibition of human HEL cell growth in a cell viability assay.

[33] = system: LNCaP-Clone-FGC
Description: SANGER: Inhibition of human LNCaP-Clone-FGC cell growth in a cell viability assay.

[34] = system: NCI-H82;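 also: growth inhibition of NCI-H82 cells, measured with a cell viability readout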
Description: SANGER: Inhibition of human NCI-H82 cell growth in a cell viability assay.

[35] = system: EW-11;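 also: growth inhibition of human EW-11 cells, measured with a cell viability assay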
Description: SANGER: Inhibition of human EW-11 cell growth in a cell viability assay.

[36] = system: KALS-1;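 also: growth inhibition of KALS-1 cells, determined with a cell viability assay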
Description: SANGER: Inhibition of human KALS-1 cell growth in a cell viability assay.

[37] = system: no-10;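 also: growth inhibition of no-10 cells, read out with a cell viability assay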
Description: SANGER: Inhibition of human no-10 cell growth in a cell viability assay.

[38] = system: RKO;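 also: growth inhibition of human RKO cells, read out with a cell viability assay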
Description: SANGER: Inhibition of human RKO cell growth in a cell viability assay.

[39] = system: NCI-H747;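 also: growth inhibition of human NCI-H747 cells, read out by a cell viability assay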
Description: SANGER: Inhibition of human NCI-H747 cell growth in a cell viability assay.

[40] = system: BB49-HNC;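 also: cell viability assay read-out, reported as inhibition of BB49-HNC cell growth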
Description: SANGER: Inhibition of human BB49-HNC cell growth in a cell viability assay.

[41] = system: KARPAS-45;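 also: inhibition of cell line growth, read out through a viability assay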
Description: SANGER: Inhibition of human KARPAS-45 cell growth in a cell viability assay.

[42] = system: TE-9;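 also: cell growth inhibition, measured with a cell viability readout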
Description: SANGER: Inhibition of human TE-9 cell growth in a cell viability assay.

[43] = system: JVM-3;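 also: growth inhibition of human JVM-3 cells, read out with a cell viability assay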
Description: SANGER: Inhibition of human JVM-3 cell growth in a cell viability assay.

[44] = system: KP-N-YS;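 also: cell viability assay measuring inhibition of cell line growth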
Description: SANGER: Inhibition of human KP-N-YS cell growth in a cell viability assay.

[45] = system: MOLT-4;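 also: growth inhibition of MOLT-4 cells, determined with a cell viability readout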
Description: SANGER: Inhibition of human MOLT-4 cell growth in a cell viability assay.

[46] = system: ONS-76;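 also: growth inhibition of human ONS-76 cells, read out with a cell viability assay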
Description: SANGER: Inhibition of human ONS-76 cell growth in a cell viability assay.

[47] = system: TE-10;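 also: growth inhibition of TE-10 cells, measured by a cell viability assay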
Description: SANGER: Inhibition of human TE-10 cell growth in a cell viability assay.

[48] = system: KINGS-1;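 also: cell viability assay measuring suppression of KINGS-1 cell growth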
Description: SANGER: Inhibition of human KINGS-1 cell growth in a cell viability assay.

[49] = system: COLO-800;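 also: growth inhibition of COLO-800 cells, read out with a cell viability assay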
Description: SANGER: Inhibition of human COLO-800 cell growth in a cell viability assay.

[50] = system: GT3TKB;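 also: growth inhibition of the cell line, read out with a cell viability assay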
Description: SANGER: Inhibition of human GT3TKB cell growth in a cell viability assay.

[51] = system: MZ2-MEL;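 also: growth inhibition of MZ2-MEL cells read out with a cell viability assay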
Description: SANGER: Inhibition of human MZ2-MEL cell growth in a cell viability assay.

[52] = system: COLO-824
Description: SANGER: Inhibition of human COLO-824 cell growth in a cell viability assay.

[53] = system: HD-MY-Z;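 also: growth inhibition of HD-MY-Z cells, read out with a cell viability assay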
Description: SANGER: Inhibition of human HD-MY-Z cell growth in a cell viability assay.

[54] = system: LB2518-MEL;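 also: growth inhibition of human LB2518-MEL cells, measured with a cell viability assay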
Description: SANGER: Inhibition of human LB2518-MEL cell growth in a cell viability assay.

[55] = system: OVCAR-4;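 also: growth inhibition of human OVCAR-4 cells, measured with a cell viability assay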
Description: SANGER: Inhibition of human OVCAR-4 cell growth in a cell viability assay.

[56] = system: NCI-H1299;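 also: growth inhibition of human NCI-H1299 cells, read out by a cell viability assay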
Description: SANGER: Inhibition of human NCI-H1299 cell growth in a cell viability assay.

[57] = system: HT
Description: SANGER: Inhibition of human HT cell growth in a cell viability assay.

[58] = system: DJM-1;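 also: growth inhibition of human DJM-1 cells, read out by a cell viability assay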
Description: SANGER: Inhibition of human DJM-1 cell growth in a cell viability assay.

[59] = system: L-363
Description: SANGER: Inhibition of human L-363 cell growth in a cell viability assay.

[60] = system: SK-MEL-1;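 also: growth inhibition of human SK-MEL-1 cells, read out by a cell viability assay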
Description: SANGER: Inhibition of human SK-MEL-1 cell growth in a cell viability assay.

[61] = system: TGBC1TKB
Description: SANGER: Inhibition of human TGBC1TKB cell growth in a cell viability assay.

[62] = system: NB10
Description: SANGER: Inhibition of human NB10 cell growth in a cell viability assay.

[63] = system: LAMA-84
Description: SANGER: Inhibition of human LAMA-84 cell growth in a cell viability assay.

[64] = system: UACC-257
Description: SANGER: Inhibition of human UACC-257 cell growth in a cell viability assay.

[65] = system: SK-NEP-1
Description: SANGER: Inhibition of human SK-NEP-1 cell growth in a cell viability assay.

[66] = system: MLMA
Description: SANGER: Inhibition of human MLMA cell growth in a cell viability assay.

## C[C@]12O[C@H](C[C@]1(O)CO)n1c3ccccc3c3c4c(c5c6ccccc6n2c5c31)CNC4=O [LESTAURTINIB]
[1]
  pIC50: < 5.70
[2]
  pIC50: 6.45
[3]
  pIC50: < 5.70
[4]
  pIC50: < 5.70
[5]
  pIC50: < 5.70
[6]
  pIC50: < 5.70
[7]
  pIC50: 6.89
[8]
  pIC50: 6.29
[9]
  pIC50: 7.36
[10]
  pIC50: < 5.70
[11]
  pIC50: 6.59
[12]
  pIC50: 6.02
[13]
  pIC50: < 5.70
[14]
  pIC50: 5.82
[15]
  pIC50: 6.84
[16]
  pIC50: < 5.70
[17]
  pIC50: 6.48
[18]
  pIC50: 6.30
[19]
  pIC50: 6.51
[20]
  pIC50: 5.97
[21]
  pIC50: 6.22
[22]
  pIC50: 7.37
[23]
  pIC50: < 5.70
[24]
  pIC50: 6.90
[25]
  pIC50: < 5.70
[26]
  pIC50: 6.00
[27]
  pIC50: < 5.70
[28]
  pIC50: 7.17
[29]
  pIC50: < 5.70
[30]
  pIC50: 7.33
[31]
  pIC50: 5.72
[32]
  pIC50: 6.69
[33]
  pIC50: 6.45
[34]
  pIC50: < 5.70
[35]
  pIC50: 6.88
[36]
  pIC50: 6.16
[37]
  pIC50: < 5.70
[38]
  pIC50: 6.52
[39]
  pIC50: 5.98
[40]
  pIC50: 5.78
[41]
  pIC50: 7.28
[42]
  pIC50: 6.38
[43]
  pIC50: 7.53
[44]
  pIC50: 6.15
[45]
  pIC50: 7.15
[46]
  pIC50: 6.87
[47]
  pIC50: 5.83
[48]
  pIC50: 6.26
[49]
  pIC50: 6.72
[50]
  pIC50: 6.41
[51]
  pIC50: 6.63
[52]
  pIC50: < 5.70
[53]
  pIC50: 7.86
[54]
  pIC50: 6.39
[55]
  pIC50: < 5.70
[56]
  pIC50: 6.03
[57]
  pIC50: 5.95
[58]
  pIC50: 6.18
[59]
  pIC50: 6.83
[60]
  pIC50: < 5.70
[61]
  pIC50: < 5.70
[62]
  pIC50: 6.47
[63]
  pIC50: 7.31
[64]
  pIC50: 6.27
[65]
  pIC50: 6.95
[66]
  pIC50: 6.83

## CCNC(=O)c1noc(-c2cc(C(C)C)c(O)cc2O)c1-c1ccc(CN2CCOCC2)cc1 [LUMINESPIB]
[1]
  pIC50: 7.27
[2]
  pIC50: 7.49
[3]
  pIC50: 6.85
[4]
  pIC50: 7.67
[5]
  pIC50: 7.63
[6]
  pIC50: < 6.59
[7]
  pIC50: 7.82
[8]
  pIC50: < 6.59
[9]
  pIC50: 7.63
[10]
  pIC50: 8.29
[11]
  pIC50: 6.75
[12]
  pIC50: 7.80
[13]
  pIC50: 7.08
[14]
  pIC50: < 6.59
[15]
  pIC50: 6.84
[16]
  pIC50: 6.61
[17]
  pIC50: < 6.59
[18]
  pIC50: 6.85
[19]
  pIC50: < 6.59
[20]
  pIC50: 7.89
[21]
  pIC50: 6.98
[22]
  pIC50: 7.89
[23]
  pIC50: < 6.59
[24]
  pIC50: 7.06
[25]
  pIC50: 7.11
[26]
  pIC50: 7.20
[27]
  pIC50: 6.73
[28]
  pIC50: 7.70
[29]
  pIC50: < 6.59
[30]
  pIC50: 6.95
[31]
  pIC50: < 6.59
[32]
  pIC50: 7.41
[33]
  pIC50: 7.09
[34]
  pIC50: < 6.59
[35]
  pIC50: 7.12
[36]
  pIC50: 7.83
[37]
  pIC50: 7.52
[38]
  pIC50: 8.08
[39]
  pIC50: 7.34
[40]
  pIC50: 7.97
[41]
  pIC50: 7.03
[42]
  pIC50: 7.37
[43]
  pIC50: < 6.59
[44]
  pIC50: 7.08
[45]
  pIC50: 7.32
[46]
  pIC50: 7.53
[47]
  pIC50: 7.70
[48]
  pIC50: 7.61
[49]
  pIC50: < 6.59
[50]
  pIC50: 7.92
[51]
  pIC50: 7.50
[52]
  pIC50: 6.96
[53]
  pIC50: 6.84
[54]
  pIC50: < 6.59
[55]
  pIC50: 7.41
[56]
  pIC50: 7.94
[57]
  pIC50: 6.65
[58]
  pIC50: 7.37
[59]
  pIC50: 7.16
[60]
  pIC50: < 6.59
[61]
  pIC50: 6.68
[62]
  pIC50: 6.62
[63]
  pIC50: 7.38
[64]
  pIC50: 7.12
[65]
  pIC50: 6.80
[66]
  pIC50: 7.34

## Cc1[nH]c(/C=C2\C(=O)Nc3ccc(S(=O)(=O)Cc4c(Cl)cccc4Cl)cc32)c(C)c1C(=O)N1CCC[C@@H]1CN1CCCC1 [PHA-665752]
[1]
  pIC50: < 5.70
[2]
  pIC50: < 5.70
[3]
  pIC50: < 5.70
[4]
  pIC50: < 5.70
[5]
  pIC50: < 5.70
[6]
  pIC50: < 5.70
[7]
  pIC50: < 5.70
[8]
  pIC50: < 5.70
[9]
  pIC50: < 5.70
[10]
  pIC50: < 5.70
[11]
  pIC50: < 5.70
[12]
  pIC50: < 5.70
[13]
  pIC50: < 5.70
[14]
  pIC50: < 5.70
[15]
  pIC50: < 5.70
[16]
  pIC50: < 5.70
[17]
  pIC50: < 5.70
[18]
  pIC50: < 5.70
[19]
  pIC50: < 5.70
[20]
  pIC50: < 5.70
[21]
  pIC50: < 5.70
[22]
  pIC50: < 5.70
[23]
  pIC50: < 5.70
[24]
  pIC50: < 5.70
[25]
  pIC50: < 5.70
[26]
  pIC50: < 5.70
[27]
  pIC50: < 5.70
[28]
  pIC50: < 5.70
[29]
  pIC50: < 5.70
[30]
  pIC50: < 5.70
[31]
  pIC50: < 5.70
[32]
  pIC50: < 5.70
[33]
  pIC50: < 5.70
[34]
  pIC50: < 5.70
[35]
  pIC50: < 5.70
[36]
  pIC50: < 5.70
[37]
  pIC50: < 5.70
[38]
  pIC50: < 5.70
[39]
  pIC50: < 5.70
[40]
  pIC50: < 5.70
[41]
  pIC50: < 5.70
[42]
  pIC50: < 5.70
[43]
  pIC50: < 5.70
[44]
  pIC50: < 5.70
[45]
  pIC50: < 5.70
[46]
  pIC50: < 5.70
[47]
  pIC50: < 5.70
[48]
  pIC50: 6.44
[49]
  pIC50: < 5.70
[50]
  pIC50: < 5.70
[51]
  pIC50: < 5.70
[52]
  pIC50: < 5.70
[53]
  pIC50: < 5.70
[54]
  pIC50: < 5.70
[55]
  pIC50: < 5.70
[56]
  pIC50: < 5.70
[57]
  pIC50: < 5.70
[58]
  pIC50: < 5.70
[59]
  pIC50: < 5.70
[60]
  pIC50: < 5.70
[61]
  pIC50: < 5.70
[62]
  pIC50: < 5.70
[63]
  pIC50: < 5.70
[64]
  pIC50: < 5.70
[65]
  pIC50: < 5.70
[66]
  pIC50: < 5.70

## CC(C)=CC[C@@H](O)C1=CC(=O)c2c(O)ccc(O)c2C1=O [SHIKONIN]
[1]
  pIC50: < 4.80
[2]
  pIC50: > 7.20
[3]
  pIC50: 5.86
[4]
  pIC50: 6.06
[5]
  pIC50: 6.25
[6]
  pIC50: 5.81
[7]
  pIC50: 5.33
[8]
  pIC50: < 4.80
[9]
  pIC50: 6.30
[10]
  pIC50: 6.57
[11]
  pIC50: 5.74
[12]
  pIC50: < 4.80
[13]
  pIC50: < 4.80
[14]
  pIC50: < 4.80
[15]
  pIC50: 6.17
[16]
  pIC50: 5.53
[17]
  pIC50: 6.05
[18]
  pIC50: 5.95
[19]
  pIC50: 6.71
[20]
  pIC50: 6.53
[21]
  pIC50: 5.43
[22]
  pIC50: 7.22
[23]
  pIC50: 6.00
[24]
  pIC50: 6.18
[25]
  pIC50: 5.92
[26]
  pIC50: 4.98
[27]
  pIC50: 6.42
[28]
  pIC50: > 7.20
[29]
  pIC50: 5.99
[30]
  pIC50: 6.81
[31]
  pIC50: < 4.80
[32]
  pIC50: 5.69
[33]
  pIC50: < 4.80
[34]
  pIC50: < 4.80
[35]
  pIC50: 6.35
[36]
  pIC50: 5.88
[37]
  pIC50: 6.54
[38]
  pIC50: 6.57
[39]
  pIC50: 6.36
[40]
  pIC50: < 4.80
[41]
  pIC50: 5.00
[42]
  pIC50: 6.39
[43]
  pIC50: < 4.80
[44]
  pIC50: 6.45
[45]
  pIC50: 6.39
[46]
  pIC50: 6.45
[47]
  pIC50: 6.01
[48]
  pIC50: 4.85
[49]
  pIC50: < 4.80
[50]
  pIC50: 6.46
[51]
  pIC50: 6.41
[52]
  pIC50: 6.15
[53]
  pIC50: 6.33
[54]
  pIC50: 5.48
[55]
  pIC50: 6.17
[56]
  pIC50: 5.97
[57]
  pIC50: 5.96
[58]
  pIC50: 5.19
[59]
  pIC50: < 4.80
[60]
  pIC50: < 4.80
[61]
  pIC50: 5.85
[62]
  pIC50: 5.87
[63]
  pIC50: 5.92
[64]
  pIC50: < 4.80
[65]
  pIC50: 5.97
[66]
  pIC50: 6.27

Source: ChEMBL document CHEMBL1201861, “Genomics of Drug Sensitity in Cancer screening data, Wellcome Trust Sanger Institute”
